One assay has as its target T1, STAT6 protein (Homo sapiens, UniProt P42226).
T1 sequence (P42226 1-847): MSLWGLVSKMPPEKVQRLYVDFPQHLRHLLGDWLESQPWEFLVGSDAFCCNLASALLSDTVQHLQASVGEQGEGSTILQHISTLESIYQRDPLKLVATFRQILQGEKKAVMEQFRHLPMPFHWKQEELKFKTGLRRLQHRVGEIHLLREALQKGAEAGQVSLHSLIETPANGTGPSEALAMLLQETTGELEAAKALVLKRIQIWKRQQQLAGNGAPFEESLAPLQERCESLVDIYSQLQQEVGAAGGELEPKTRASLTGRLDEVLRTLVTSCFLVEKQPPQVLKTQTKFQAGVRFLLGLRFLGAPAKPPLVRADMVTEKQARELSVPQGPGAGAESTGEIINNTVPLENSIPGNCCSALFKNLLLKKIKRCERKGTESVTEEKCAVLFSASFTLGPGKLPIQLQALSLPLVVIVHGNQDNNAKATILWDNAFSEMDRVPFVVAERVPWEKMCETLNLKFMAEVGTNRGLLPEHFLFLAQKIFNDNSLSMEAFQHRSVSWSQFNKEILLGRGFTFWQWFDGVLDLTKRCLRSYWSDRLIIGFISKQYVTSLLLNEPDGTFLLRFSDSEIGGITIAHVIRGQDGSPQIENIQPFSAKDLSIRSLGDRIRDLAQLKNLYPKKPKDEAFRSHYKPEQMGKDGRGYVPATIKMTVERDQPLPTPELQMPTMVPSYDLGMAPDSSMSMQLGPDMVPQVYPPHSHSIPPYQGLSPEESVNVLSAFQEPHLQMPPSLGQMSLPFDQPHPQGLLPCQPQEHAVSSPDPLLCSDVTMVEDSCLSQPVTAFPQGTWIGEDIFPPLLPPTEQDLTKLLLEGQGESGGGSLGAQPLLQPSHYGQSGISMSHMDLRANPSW
Nature of the assay: Fluorescence polarization (FP) binding assay, STAT6. Conditions: FP competition, 5 nM fluorescein-labeled tracer, 200 nM protein, PBS pH7.4; read-out: Binding STAT6. The method in brief: (§1)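 Polarization read after 1 h equilibration at room temperature (preceded by 15 min shaking) of 200 nM STAT5 and/or STAT6 with 5 nM fluorescein tracer. Buffer: PBS pH 7.4 plus 0.01% BGG, 0.01% Tween-20, 2 mM DTT; inhibition constants derived by nonlinear fitting.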

Another assay concerns the target T2, STAT5A (Homo sapiens, UniProt P42229).
T2 sequence (P42229 1-794): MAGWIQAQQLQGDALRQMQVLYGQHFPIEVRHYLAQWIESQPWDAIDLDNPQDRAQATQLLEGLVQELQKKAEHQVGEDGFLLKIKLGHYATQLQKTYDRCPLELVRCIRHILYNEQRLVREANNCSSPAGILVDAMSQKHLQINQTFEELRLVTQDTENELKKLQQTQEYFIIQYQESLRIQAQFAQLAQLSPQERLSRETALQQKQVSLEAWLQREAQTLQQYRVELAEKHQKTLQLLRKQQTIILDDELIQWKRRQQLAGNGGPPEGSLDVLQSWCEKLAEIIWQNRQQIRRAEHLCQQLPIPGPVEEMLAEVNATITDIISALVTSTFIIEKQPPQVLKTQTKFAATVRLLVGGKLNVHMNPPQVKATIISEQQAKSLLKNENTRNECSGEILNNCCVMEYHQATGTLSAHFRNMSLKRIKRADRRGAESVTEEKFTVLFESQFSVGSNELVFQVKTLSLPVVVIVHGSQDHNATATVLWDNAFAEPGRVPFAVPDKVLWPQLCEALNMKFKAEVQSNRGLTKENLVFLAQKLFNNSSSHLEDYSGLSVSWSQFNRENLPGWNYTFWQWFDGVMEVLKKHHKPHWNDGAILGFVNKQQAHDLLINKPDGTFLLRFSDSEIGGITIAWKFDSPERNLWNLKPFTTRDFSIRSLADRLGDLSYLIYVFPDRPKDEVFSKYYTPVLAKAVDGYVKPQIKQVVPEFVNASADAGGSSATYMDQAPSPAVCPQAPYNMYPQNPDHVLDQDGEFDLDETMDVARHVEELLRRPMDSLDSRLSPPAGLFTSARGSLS
The assay can be described thus: Fluorescence polarization (FP) binding assay, STAT5A. The note with it: FP competition, 5 nM fluorescein-labeled tracer, 200 nM protein, PBS pH7.4. The method, boiled down: as §1

pKi: −log10 of the molar value.

With `CC(C)(C)[C@H](NC(=O)c1cc2cc(C(F)(F)P(=O)(O)O)ccc2[nH]1)C(=O)N1CCC[C@H]1c1ncc(-c2ccccc2)s1` [Compound 21, ((2-(((S)-3,3-dimethyl-1-oxo-1-((S)-2-(5-phenylthiazol-2-yl)pyrrolidin-1-yl)butan-2-yl)carbamoyl)-1H-indol-5-yl)difluoromethyl)phosphonic acid], the values for the pKi on STAT6 protein and on STAT5A were 5.00 to 6.00 and below 5.00, respectively.
Take `CC(C)(C)[C@H](NC(=O)/C=C/c1ccc(C(F)(F)P(=O)(O)O)cc1)C(=O)N1CCC[C@H]1c1ncc(-c2ccccc2)s1` [Compound 22, ((4-((E)-3-(((S)-3,3-dimethyl-1-oxo-1-((S)-2-(5-phenylthiazol-2-yl)pyrrolidin-1-yl)butan-2-yl)amino)-3-oxoprop-1-en-1-yl)phenyl)difluoromethyl)phosphonic acid]: the pKi at STAT6 protein and on STAT5A was below 5.00 in each case.
For the compound `O=C(N[C@@H](CC1CCCCC1)C(=O)N1CCC[C@H]1C(=O)N1CCc2ccccc2C1)c1cc2cc(C(F)(F)P(=O)(O)O)ccc2[nH]1` [Compound 23, ((2-(((S)-3-cyclohexyl-1-oxo-1-((S)-2-(1,2,3,4-tetrahydroisoquinoline-2-carbonyl)pyrrolidin-1-yl)propan-2-yl)carbamoyl)-1H-indol-5-yl)difluoromethyl)phosphonic acid], the pKi on STAT6 protein and at STAT5A was 5.00 to 6.00 throughout.
On to `O=C(/C=C/c1ccc(C(F)(F)P(=O)(O)O)cc1)N[C@@H](CC1CCCCC1)C(=O)N1CCC[C@H]1C(=O)N1CCc2ccccc2C1` [Compound 24, ((4-((E)-3-(((S)-3-cyclohexyl-1-oxo-1-((S)-2-(1,2,3,4-tetrahydroisoquinoline-2-carbonyl)pyrrolidin-1-yl)propan-2-yl)amino)-3-oxoprop-1-en-1-yl)phenyl)difluoromethyl)phosphonic acid], for which the pKi at STAT6 protein and on STAT5A was below 5.00 each time.
Take `CC(C)(C)[C@H](NC(=O)c1cc2cc(C(F)(F)P(=O)(O)O)ccc2[nH]1)C(=O)N1CCC[C@H]1c1ncc(Cc2ccccc2)s1` [Compound 25, ((2-(((S)-1-((S)-2-(5-benzylthiazol-2-yl)pyrrolidin-1-yl)-3,3-dimethyl-1-oxobutan-2-yl)carbamoyl)-1H-indol-5-yl)difluoromethyl)phosphonic acid]: the pKi at STAT6 protein is below 5.00; on STAT5A it was 5.00 to 6.00.
With `CC(C)(C)[C@H](NC(=O)/C=C/c1ccc(C(F)(F)P(=O)(O)O)cc1)C(=O)N1CCC[C@H]1c1ncc(Cc2ccccc2)s1` [Compound 26, ((4-((E)-3-(((S)-1-((S)-2-(5-benzylthiazol-2-yl)pyrrolidin-1-yl)-3,3-dimethyl-1-oxobutan-2-yl)amino)-3-oxoprop-1-en-1-yl)phenyl)difluoromethyl)phosphonic acid], the pKi on STAT6 protein and at STAT5A was below 5.00 each time.
On to `O=C(N[C@@H](Cc1ccncc1)C(=O)N1CCC[C@H]1C(=O)N1CCc2ccccc2C1)c1cc2cc(C(F)(F)P(=O)(O)O)ccc2[nH]1` [Compound 27, (difluoro(2-(((S)-1-oxo-3-(pyridin-4-yl)-1-((S)-2-(1,2,3,4-tetrahydroisoquinoline-2-carbonyl)pyrrolidin-1-yl)propan-2-yl)carbamoyl)-1H-indol-5-yl)methyl)phosphonic acid], for which the pKi at STAT6 protein was 5.00 to 6.00; on STAT5A it was below 5.00.
As to `O=C(NC(C(=O)N1CCC[C@H]1C(=O)N1CCc2ccccc2C1)C1CCNCC1)c1cc2cc(C(F)(F)P(=O)(O)O)ccc2[nH]1` (stereo partly drawn) [Compound 28, (difluoro(2-((2-oxo-1-(piperidin-4-yl)-2-((S)-2-(1,2,3,4-tetrahydroisoquinoline-2-carbonyl)pyrrolidin-1-yl)ethyl)carbamoyl)-1H-indol-5-yl)methyl)phosphonic acid], the pKi at STAT6 protein and on STAT5A was below 5.00 each time.
On to `O=C(/C=C/c1ccc(C(F)(F)P(=O)(O)O)cc1)NC(C(=O)N1CCC[C@H]1C(=O)N1CCc2ccccc2C1)C1CCNCC1` (stereo partly drawn) [Compound 29, (difluoro(4-((E)-3-oxo-3-((2-oxo-1-(piperidin-4-yl)-2-((S)-2-(1,2,3,4-tetrahydroisoquinoline-2-carbonyl)pyrrolidin-1-yl)ethyl)amino)prop-1-en-1-yl)phenyl)methyl)phosphonic acid], for which the pKi on STAT6 protein and on STAT5A was below 5.00 throughout.
As to `CC(C)(C)[C@H](NC(=O)c1cc2cc(C(F)(F)P(=O)(O)O)ccc2[nH]1)C(=O)N1CCC[C@H]1C(=O)Nc1nc(-c2ccccc2)cs1` [Compound 30, ((2-(((S)-3,3-dimethyl-1-oxo-1-((S)-2-((4-phenylthiazol-2-yl)carbamoyl)pyrrolidin-1-yl)butan-2-yl)carbamoyl)-1H-indol-5-yl)difluoromethyl)phosphonic acid], the pKi on STAT6 protein and at STAT5A was below 5.00 each time.
`CC(C)(C)[C@H](NC(=O)c1cc2cc(C(F)(F)P(=O)(O)O)ccc2[nH]1)C(=O)N1CCC[C@H]1C(=O)Nc1ncc(-c2ccccc2)s1` [Compound 31, ((2-(((S)-3,3-dimethyl-1-oxo-1-((S)-2-((5-phenylthiazol-2-yl)carbamoyl)pyrrolidin-1-yl)butan-2-yl)carbamoyl)-1H-indol-5-yl)difluoromethyl)phosphonic acid]: the pKi at STAT6 protein was below 5.00; on STAT5A it was 6.00 to 7.00.
On the same counts, the results for `CN(C(=O)[C@@H]1CCCN1C(=O)[C@@H](NC(=O)c1cc2cc(C(F)(F)P(=O)(O)O)ccc2[nH]1)C(C)(C)C)C(c1ccccc1)c1ccccc1` [Compound 32, ((2-(((S)-1-((S)-2-(benzhydryl(methyl)carbamoyl)pyrrolidin-1-yl)-3,3-dimethyl-1-oxobutan-2-yl)carbamoyl)-1H-indol-5-yl)difluoromethyl)phosphonic acid] are below 5.00 and below 5.00.
On the same counts, the results for `CC(C)(C)[C@H](NC(=O)c1cc2cc(C(F)(F)P(=O)(O)O)ccc2[nH]1)C(=O)N1CCC[C@H]1c1ncc(-c2ccccc2)[nH]1` [Compound 33, ((2-(((S)-3,3-dimethyl-1-oxo-1-((S)-2-(5-phenyl-1H-imidazol-2-yl)pyrrolidin-1-yl)butan-2-yl)carbamoyl)-1H-indol-5-yl)difluoromethyl)phosphonic acid] are below 5.00 and below 5.00.
As to `CC(=O)N1CCC(C(NC(=O)c2cc3cc(C(F)(F)P(=O)(O)O)ccc3[nH]2)C(=O)N2CCC[C@H]2C(=O)N2CCc3ccccc3C2)CC1` (stereo partly drawn) [Compound 34, ((2-((1-(1-acetylpiperidin-4-yl)-2-oxo-2-((S)-2-(1,2,3,4-tetrahydroisoquinoline-2-carbonyl)pyrrolidin-1-yl)ethyl)carbamoyl)-1H-indol-5-yl)difluoromethyl)phosphonic acid], the pKi on STAT6 protein and at STAT5A was below 5.00 each time.
As for `O=C(N[C@@H](CC1=CCN(Cc2ccccc2)CC1)C(=O)N1CCC[C@H]1C(=O)N1CCc2ccccc2C1)c1cc2cc(C(F)(F)P(=O)(O)O)ccc2[nH]1` [Compound 35, ((2-(((S)-3-(1-benzyl-1,2,3,6-tetrahydropyridin-4-yl)-1-oxo-1-((S)-2-(1,2,3,4-tetrahydroisoquinoline-2-carbonyl)pyrrolidin-1-yl)propan-2-yl)carbamoyl)-1H-indol-5-yl)difluoromethyl)phosphonic acid], the pKi on STAT6 protein and at STAT5A was below 5.00 throughout.

(Values after US20230295200A1 (REGENTS OF THE UNIVERSITY OF MICHIGAN, priority 2022, published 2023).)
